From patent US7091248B2, “Treatment of adrenocortical hypersecretion and tumor growth” (priority 2001, dated 2006)
Several values for one entry are separate records, joined by “and”; a condition that tells them apart may be missing. Equal entries are not always repeated. Entries after “also recorded” stand apart in the source; their conditions may differ. Where two headings read alike, the source gives them in different places.

Legend:
[1] = system: mouse adrenal zona fasciculata cells; details: cited from earlier work
[2] = system: bilateral non-functioning adrenocortical hyperplasia; assay: Bound radioactivity in slices from a bilateral non-functioning adrenocortical hyperplasia; format: cell-based, human
Description: Tissue from a bilateral non-functioning adrenocortical hyperplasia was obtained from a person.
(§1) Adrenal tissue was placed in ice-cold isotonic saline solution after removal and kept on ice until embedded in 3% agarose. Precision-cut slices (200 μm) were prepared in a Krumdieck tissue slicer (Alabama Research and Development, Munford, Ala., USA) in ice-cold PBS. Slices of roughly equal size were placed in culture medium on a titanium screen holder and incubated for 24 h (after a 1 h pre-incubation).
To inhibit CYP-dependent enzyme activity in the slices, incubation wells were supplemented with the CYP11B1 (11β-hydroxylase) inhibitor metyrapone (50 μM) when applicable. […]
Phosphorautoradiography: Semi-quantification of tissue-bound radioactivity was accomplished by apposing tissue sections to imaging plates (BAS-IP MP 2040S Fuji, Japan) for 49 days. The radioactivity in the labeled areas of the adrenal sections was recorded by reading the imaging plate in a Phosphoimager (BAS 1500, Fuji, Japan). For semi-quantification of the tissue-bound radioactivity, a Windows-based bio-imaging analyzer program (ImageGauge, version 3.122, Fujifilm, Japan) was used.
In order to correlate tissue-bound radioactivity and metabolically active regions in the incubated slices, the labeled areas of the images were marked selectively at 1 pixel resolution (1 pixel=100 μm). […]

[3] = system: adrenocortical carcinoma cells; assay: Autoradiography of slices from a lymphnode metastasis of an aldosterone producing adrenocortical carcinoma; format: cell-based, human
Description: Tissue from a lymphnode metastasis of an aldosterone producing adrenocortical carcinoma was obtained from a person.
as §1
Microautoradiography: Slices were incubated with MeSO2-[^14C]DDE (2.6 μM, 35 nCi/ml) or o,p′-[^14C]DDD (3.8 μM, 60 nCi/ml) for 24 h. The labeled substances were added to the medium dissolved in DMSO. Following incubation, slices were fixed overnight in buffered formaldehyde (4%). The fixed slices were dehydrated, embedded in methacrylate, sectioned, and dipped in liquid NTB2 film emulsion, as described elsewhere (4). Autoradiograms were exposed (4° C.) for one year to enable localization of irreversible binding in metyrapone-treated slices. Autoradiograms were developed, stained, and examined as previously described (4).

[4] = system: cells from the human adrenal cortex; details: homogenate incubations, read-out: apparent Km-value; cited from earlier work
normal adrenal slices [5] = assay: Phosphorautoradiography, semi-quantification of tissue-bound radioactivity in normal adrenal slices; format: cell-based, human; details: for inhibition of irreversible binding in zona fasciculata/reticularis in metyrapone-exposed slices: metyrapone 50 μM, 24 h of exposure, compared with slices without metyrapone; for amount of tissue-bound radioactivity, MeSO2-[14C]DDE- versus o,p′-[14C]DDD-exposed slices: normal human adrenal slices, phosphorautoradiography
Description: Normal adrenal tissue, cortex as well as apparently unaffected medulla, was obtained from a […] MEN 2 patient operated on for an ipsilateral pheochromocytoma. Another normal adrenal was obtained from a patient operated on for a renal carcinoma. Adrenal tissue was placed in ice-cold isotonic saline solution after removal and kept on ice until embedded in 3% agarose. Precision-cut slices (200 μm) were prepared in a Krumdieck tissue slicer (Alabama Research and Development, Munford, Ala., USA) in ice-cold PBS. Slices of roughly equal size were placed in culture medium on a titanium screen holder and incubated for 24 h (after a 1 h pre-incubation). To inhibit CYP-dependent enzyme activity in the slices, incubation wells were supplemented with the CYP11B1 (11β-hydroxylase) inhibitor metyrapone (50 μM) when applicable. To stimulate ACTH-regulated enzyme activity in the slices, the synthetic ACTH-analogue tetracosactide (11 nM) was added. The labeled and unlabeled test substances (MeSO2-DDE and o,p'-DDD) were added to the fresh incubation medium, dissolved in DMSO (not exceeding 0.5% of the total volume). Control slices were cultured in medium containing DMSO only. Phosphorautoradiography: […] The radioactivity in the labeled areas of the adrenal sections was recorded by reading the imaging plate in a Phosphoimager (BAS 1500, Fuji, Japan). For semi-quantification of the tissue-bound radioactivity, a Windows-based bio-imaging analyzer program (ImageGauge, version 3.122, Fujifilm, Japan) was used. […] The values were adjusted according to the difference in specific activity of the two compounds. In order to check the imaging plates with respect to exposure linearity, the same plate was repeatedly exposed to the same sections for 7, 14, 28, 49 and 122 days, reading and erasing the plate between each exposure. […] Intra-exposure variation was measured on three adjacent sections on the same glass-slide.

mouse adrenal slices = details: cited from earlier work; for irreversible binding in mouse adrenal cortex slices: ex vivo slice culture
CYP 11B1 [6] = target: T1, CYP 11B1 (Homo sapiens, UniProt P15538); design: endogenous in cells; host or cells: H295R human adrenocortical carcinoma cell line; details: 10 μM; H295R cells; cited from earlier work
T1 sequence (P15538 25-503): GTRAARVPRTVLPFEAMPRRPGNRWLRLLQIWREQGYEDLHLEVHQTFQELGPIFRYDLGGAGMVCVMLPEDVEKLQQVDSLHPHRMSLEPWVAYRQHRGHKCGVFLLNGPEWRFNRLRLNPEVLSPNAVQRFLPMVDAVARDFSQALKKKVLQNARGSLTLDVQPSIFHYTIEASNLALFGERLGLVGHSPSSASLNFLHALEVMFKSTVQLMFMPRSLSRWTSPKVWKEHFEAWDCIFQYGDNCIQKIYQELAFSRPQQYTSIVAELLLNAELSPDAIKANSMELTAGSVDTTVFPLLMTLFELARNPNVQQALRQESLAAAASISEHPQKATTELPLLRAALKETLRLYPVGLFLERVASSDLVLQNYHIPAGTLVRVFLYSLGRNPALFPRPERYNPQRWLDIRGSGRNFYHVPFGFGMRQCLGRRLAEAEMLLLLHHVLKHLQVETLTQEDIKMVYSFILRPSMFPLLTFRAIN

normal adrenal slices [7] = assay: Microautoradiography of irreversible binding in precision-cut normal adrenal slice culture; format: cell-based; details: normal human adrenal slices, 24 h; MeSO2-[14C]DDE 2.6 μM, o,p′-[14C]DDD 3.8 μM
Description: Normal adrenal tissue, cortex as well as apparently unaffected medulla, was obtained from a […] MEN 2 patient operated on for an ipsilateral pheochromocytoma. Another normal adrenal was obtained from a patient operated on for a renal carcinoma.
as §1
(§2) To inhibit CYP-dependent enzyme activity in the slices, incubation wells were supplemented with the CYP11B1 (11β-hydroxylase) inhibitor metyrapone (50 μM) when applicable. To stimulate ACTH-regulated enzyme activity in the slices, the synthetic ACTH-analogue tetracosactide (11 nM) was added. The labeled and unlabeled test substances (MeSO2-DDE and o,p′-DDD) were added to the fresh incubation medium, dissolved in DMSO (not exceeding 0.5% of the total volume). Control slices were cultured in medium containing DMSO only.
Microautoradiography: Slices were incubated with MeSO2-[^14C]DDE (2.6 μM, 35 nCi/ml) or o,p′-[^14C]DDD (3.8 μM, 60 nCi/ml) for 24 h. The labeled substances were added to the medium dissolved in DMSO. […]

adrenal slices = assay: Steroid hormone secretion from adrenal slices into culture medium (HPLC); format: cell-based, human; details: 25 μM
Description: as §1, §2
Cortisol, 11-deoxycortisol, corticosterone, 11-deoxycorticosterone, aldosterone, androstenedione and 17-OH-progesterone concentrations in the medium were measured with HPLC using UV detection (241 nm), as described previously (4). The steroid products were separated using a linear gradient of 18–80% acetonitrile (1 ml/min), obtained by diluting acetonitrile/tetrahydrofuran (90/10 vol %) with methanol/water (40/60 vol %), for 32 min. The amounts of steroids were expressed as nmol/slice. The detection level of cortisol/corticosterone was 5 pmol/ml medium. To adjust for differences in slice size, the steroids were expressed as a percentage of the amount of cortisol from the same slice.

rat adrenal slices = details: ex vivo slice culture; cited from earlier work
CYP 11B1 [8] = target: T1, CYP 11B1; design: expressed in transfected cells; host or cells: V79 hamster cells; details: 5 μM; V79 hamster cells transfected with human CYP11B1 DNA; cited from earlier work
adrenocortical carcinoma = details: cited from earlier work

SMILES | binding to adrenocortical carcinoma cells [3] | Km [4] [µM] | inhibition of irreversible binding in zona fasciculata/reticularis in metyrapone-exposed slices (normal adrenal slices [5]) | amount of tissue-bound radioactivity, MeSO2-[14C]DDE- versus o,p′-[14C]DDD-exposed slices (normal adrenal slices [5]) | irreversible binding in mouse adrenal cortex slices (mouse adrenal slices) | labeling of adrenal zones in autoradiograms (irreversible binding) (normal adrenal slices [7]) | cortisol or corticosterone secretion compared with control slices (adrenal slices) | effect on steroid secretion compared with control (adrenal slices) | irreversible binding in rat adrenal slices (rat adrenal slices) | other results
CS(=O)(=O)c1cc(C(=C(Cl)Cl)c2ccc(Cl)cc2)ccc1Cl [MeSO2-DDE, 1-(4-Chloro-3-methylsulphonylphenyl)-1-(4-chlorophenyl)-2,2-dichloroethene] | irreversibly bound | 1.4 | below the detection limit | no significant difference | strong irreversible binding | high and selective labeling of zona fasciculata and zona reticularis; also recorded: confined to both zona fasciculata and zona reticularis | no significant difference | increased accumulation of 11-deoxycorticosterone, 11-deoxycortisol and androstenedione | very weak binding | plasma corticosterone levels ([1]; mice, following exposure): reduced plasma corticosterone levels; irreversible binding to cellular macromolecules in vivo ([1]; mouse adrenal zona fasciculata cells): cell-specific irreversible binding; irreversible binding in nonfunctional adrenocortical hyperplasia [2]: irreversibly bound; binding to adrenocortical carcinoma cells ([3]; listed as MeSO2-[^14C]DDE): selective binding; effect on CYP 11B1 enzyme activity (CYP 11B1 [6]): inhibit CYP 11B1 enzyme activity; 11-deoxycortisol in the culture medium (adrenal slices): detectable only in the culture medium of MeSO2-DDE-exposed slices; 11-deoxycorticosterone secretion to the medium (adrenal slices; compared with o,p′-DDD exposed slices and control slices): significant increase; androstenedione secretion (adrenal slices; compared with o,p′-DDD-exposed slices): increased
CC(C)(C(=O)c1cccnc1)c1cccnc1 [metyrapone] |  |  |  |  |  |  |  |  |  | effect of metyrapone on irreversible protein binding and toxicity of MeSO2-DDE in the adrenal zona fasciculata ([1]; mouse, in vivo): effectively blocked; effect of metyrapone on irreversible MeSO2-[14C]DDE-binding and corticosterone secretion (mouse adrenal slices; mouse adrenal slice culture and mouse adrenal homogenate): inhibits; block of synthesis of cortisol from 11-deoxycortisol (CYP 11B1 [8]): 86%
Clc1ccc(C(c2ccccc2Cl)C(Cl)Cl)cc1 (stereo not drawn) [o,p′-DDD, 1-(2-chlorophenyl)-1-(4-chlorophenyl)-2,2-dichloroethane] | selective binding | 24 | 32% | no significant difference | negligable irreversible binding | high and selective labeling of zona fasciculata and zona reticularis; also recorded: localized in a similar way | no significant difference | did not produce any visible effect | negligable irreversible binding | irreversible binding in mouse adrenal cortex slices (mouse adrenal slices; listed as o,p′-[^14C]DDD): very weak; patients not cured by surgery who responded to treatment (adrenocortical carcinoma; adrenocortical carcinoma patients): 194 out of 551; side effects (adrenocortical carcinoma; patients, therapeutic doses): dose-dependent side effects in the gastrointestinal tract (nausea, vomiting and diarrhea) and CNS (dizziness and headaches); therapeutically insufficient plasma concentrations (adrenocortical carcinoma; patients): below 10 μg/ml and < 31 μM
